US10562920B2, “Ln(III) and Ga(III) metallacrown complexes” (The Regents of the University of Michigan, priority 2015, dated 2020)
Values joined by “and” are separate entries in the source; they are usually repeats but may differ in a detail not shown here. Equal entries are not always repeated. One block for each substance: values may come before it.

Legend:
Type in all cases: physicochemical
[1] = Quantum yields by absolute method using an integration sphere; details: for QLn^L/%: Ga6Ln(shi)9, solid state
Method: (§1) Luminescence data were collected on samples placed into 2.4 mm i.d. quartz capillaries or quartz Suprasil cells. Emission and excitation spectra were measured on a Horiba-Jobin-YvonFluorolog 3 spectrofluorimeter equipped with either a visible photomultiplier tube (PMT) (220-800 nm, R928P; Hamamatsu), a NIR solid-state InGaAs detector cooled to 77 K (800-1600 nm, DSS-IGA020L; Jobin-Yvon), or NIR PMTs (950-1450 nm, H10330-45; 950-1650 nm, H10330-75; Hamamatsu). All spectra were corrected for instrumental functions. Luminescence lifetimes were determined under excitation at 355 nm provided by a Nd:YAG laser (YG 980; Quantel), while the signal was detected in the NIR by the aforementioned PMT (H10330-75). The output signal from the detectors was then fed to a 500 MHz bandpass digital oscilloscope (TDS 754C; Tektronix) and then transferred to a PC for treatment with Origin 8®. Luminescence lifetimes are averages of at least three independent measurements. Quantum yields were determined with a Fluorolog 3 spectrofluorimeter according to an absolute method using an integration sphere (GMP SA). Each sample was measured several times under slightly different experimental conditions. Estimated experimental error for quantum yields determination is 10%.

[2] = Luminescence lifetimes under excitation at 355 nm; details: for τobs/μs: Ga8Ln2(shi)8, solid state
Method: as §1

[3] = Hydration number q from lifetimes in deuterated and protic solvents; details: from kCH3OH − kCD3OD, equations of footnotes b, c, e, g
Text: One parameter that can be obtained from the recording of luminescence lifetimes is the hydration number q. […] This non-zero q value is particularly detrimental for the intensity of the luminescence (and to the corresponding quantum yield values) of NIR-emitting lanthanides since the overtones of high-energy vibrations of the solvent molecules create a route for non-radiative deactivation.

[4] = Ligand triplet state from phosphorescence of Gd3+ analogues; details: for ΔE (cm^−1), energy gap between ligand triplet state and Ln3+ emissive state: T1 = 22 170 cm^−1, Ga4Ln(shi)4
Method: as §1
Phosphorescence can be observed by recording the signal emitted from Ga4Gd(shi)4 in time-resolved mode in the solid state at 77K upon excitation at 350 nm and using a 200 μS delay after the excitation flash (FIG. 9). The 0-0 component of this band represents the energy level of the ligand's triplet state (T1=22,170 cm^−1, 451 nm) which is attributed to the energy level responsible for the main contribution of the transfer to the Ln^3+. The T1 level is sufficiently high in energy to populate the excited states of a wide range of visible and NIR-emitting Ln^3+.
Since the Ga8Ln2(shi)8 dimer compounds were insoluble in all solvents, the solid state photophysical data alone were collected. As with the Ga4Gd(shi)4 compound, the Ga8Gd2(shi)8 complex may be used to examine the ligand-based photophysical properties. […] The solid state ligand phosphorescence was obtained at 77 K using an excitation wavelength of 350 nm and a 100 μs delay (FIG. 11). The profile of the phosphorescence is similar to that of Ga4Gd(shi)4 (FIG. 9), which was expected, since both compounds are formed by the same framework ligand, H3shi. The 0-0 transition was determined to be located at 455 nm, or 21 978 cm^−1. This triplet state energy is slightly lower than that of the Ga4Gd(shi)4 compound (22 170 cm^−1), but still is sufficiently high in energy to sensitize visible (Dy^3+, Tb^3+, Sm^3+) and/or NIR emitting (Dy^3+, Sm^3+, Ho^3+, Yb^3+, Pr^3+, Nd^3+, Er^3+) lanthanides.

[5] = Emission spectra under ligand excitation at 350 nm; details: Ga8Ln2(shi)8, solid state
Method: as §1
Using an excitation wavelength of 350 nm, both visible and NIR emission arising from f-f transitions of different lanthanide ions can be observed (FIG. 13). In general, quantum yields are lower for Ga8Ln2(shi)8 MCs compared to […] (Table 3) except for Ho^3+ analogues which quantum yield is increased by 1.65 times reaching 3.3(1)·10^−3%.

[6] = Ga8Ln2(shi)8, solid state, excitation 350 nm
[7] = solid state, 77 K, excitation 350 nm

QLn^L/% [1]: 7.1(2) · 10^−3%
τ/μs ([2]; Ga6Ln(shi)9, solid state): 0.905(8) μs
Substance: [ErGa6(shi)7(Hshi)(H2shi)(C6H16N)3(C5H5N)2].6H2O [Ga6Er(shi)9]

QLn^L/% [1]: 0.65(3) %
τ/μs ([2]; Ga6Ln(shi)9, solid state): 7.26(2) μs
Substance: [YbGa6(shi)7(Hshi)(H2shi)(C6H16N)3(C5H5N)2].8H2O [Ga6Yb(shi)9]

QLn^L (%) (NIR) ([1]; Ga4Ln(shi)4, CD3OD): 6.0(1) · 10^−2%
QLn^L (%) (visible) ([1]; Ga4Ln(shi)4, CD3OD): 0.78(1) %
QLn^L (%) (NIR) ([1]; Ga4Ln(shi)4, CH3OH): 2.4(1) · 10^−2%
QLn^L (%) (visible) ([1]; Ga4Ln(shi)4, CH3OH): 0.38(1) %
QLn^L (%) (NIR) ([1]; Ga4Ln(shi)4, Solid): 0.21(1) %
QLn^L (%) (visible) ([1]; Ga4Ln(shi)4, Solid): 2.10(1) %
τobs (μs) ([2]; Ga4Ln(shi)4, CD3OD): 25.5(7) μs
τobs (μs) ([2]; Ga4Ln(shi)4, CH3OH): 12.0(1) μs
τobs (μs) ([2]; Ga4Ln(shi)4, Solid): 21.2(2) μs
q (hydration number) [3]: 0.7^e
ΔE (cm^−1), energy gap between ligand triplet state and Ln3+ emissive state [4]: 1 070 cm^−1
Substance: [Ga4Dy(shi)4(C6H5CO2)4(C5H5N)(CH3OH)].C5H6N.C5H5N.CH3OH

QLn^L (%) (NIR) [1, 6]: 7.5(1) · 10^−2%
QLn^L (%) (visible) [1, 6]: 0.85(1) %
τobs/μs [2]: 15.0(1) μs
λem/nm [5]: 575 nm
Substance: [Ga8Dy2(shi)8(isophthalate)4(DMF)6].8DMF.2H2O

QLn^L (%) (visible) [1, 6]: 31.2(2) %
τobs/μs [2]: 1410(1) μs
λem/nm [5]: 545 nm
Substance: [Ga8Tb2(shi)8(isophthalate)4(DMF)6].8DMF.H2O

QLn^L (%) (NIR) ([1]; Ga4Ln(shi)4, CD3OD): 4.29(1) %
QLn^L (%) (NIR) ([1]; Ga4Ln(shi)4, CH3OH): 0.26(1) %
QLn^L (%) (NIR) ([1]; Ga4Ln(shi)4, Solid): 5.88(2) %
τobs (μs) ([2]; Ga4Ln(shi)4, CD3OD): 36.6(1) μs
τobs (μs) ([2]; Ga4Ln(shi)4, CH3OH): 2.06(4) μs
τobs (μs) ([2]; Ga4Ln(shi)4, Solid): 55.7(3) μs
q (hydration number) [3]: 0.7^g
ΔE (cm^−1), energy gap between ligand triplet state and Ln3+ emissive state [4]: 11 870 cm^−1
Substance: [YbGa4(shi)4(C6H5CO2)4(C5H5N)(CH3OH)].C5H6N.C5H5N.CH3OH [Ga4Yb(shi)4]

QLn^L/% [1]: 0.171(5) %
τ/μs ([2]; Ga6Ln(shi)9, solid state): 0.71(1) μs
Substance: [NdGa6(shi)7(Hshi)(H2shi)(C6H16N)3(C5H5N)2].7H2O [Ga6Nd(shi)9]

ligand triplet state (T1, 0-0 component of phosphorescence), wavelength [4, 7]: 451 nm
ligand triplet state energy (T1, 0-0 component of phosphorescence) [4, 7]: 22,170 cm^−1 and 22 170 cm^−1
Substance: [Ga4Gd(shi)4(C6H5CO2)4(C5H5N)(CH3OH)].C5H6N.C5H5N.CH3OH

QLn^L (%) (visible) ([1]; Ga4Ln(shi)4, Solid): 1.59(4) · 10^−2%
ΔE (cm^−1), energy gap between ligand triplet state and Ln3+ emissive state [4]: 4 910 cm^−1
Substance: [Ga4Eu(shi)4(C6H5CO2)4(C5H5N)(CH3OH)].C5H6N.C5H5N.CH3OH

QLn^L/% NIR ([1]; solid state Ga4Ln(shi)6): 0.216(6) %
τ/μs ([2]; solid state Ga4Ln(shi)6): 2.99(2) μs
Substance: [YbGa4(shi)4(H2shi)2(C5H5N)5].(NO3).(C5H5N)2 [Ga4Ybshi6]

QLn^L (%) (NIR) ([1]; Ga4Ln(shi)4, CD3OD): 4.5(3)·10^−2%
QLn^L (%) (NIR) ([1]; Ga4Ln(shi)4, Solid): 4.4(1)·10^−2%
τobs (μs) ([2]; Ga4Ln(shi)4, CD3OD): 1.74(1) μs
τobs (μs) ([2]; Ga4Ln(shi)4, Solid): 6.75(3) μs
ΔE (cm^−1), energy gap between ligand triplet state and Ln3+ emissive state [4]: 15 470 cm^−1
Substance: [ErGa4(shi)4(C6H5CO2)4(C5H5N)(CH3OH)].C5H6N.0.5C5H5N [Ga4Er(shi)4]

QLn^L (%) (NIR) [1, 6]: 0.99(2) %
τobs/μs [2]: 2.46(1) μs
λem/nm [5]: 1064 nm
Substance: [Ga8Nd2(shi)8(isophthalate)4(DMF)6].8DMF.H2O

QLn^L (%) (NIR) [1, 6]: 3.3(1) · 10^−3%
τobs/μs [2]: 0.032(1) μs
λem/nm [5]: 978 nm
Substance: [Ga8Ho2(shi)8(isophthalate)4(DMF)6].8DMF.2H2O

QLn^L (%) (NIR) [1, 6]: 2.43(6) %
τobs/μs [2]: 30.5(1) μs
λem/nm [5]: 980 nm
Substance: [Ga8Yb2(shi)8(isophthalate)4(DMF)6].8DMF.3H2O

QLn^L (%) (NIR) ([1]; Ga4Ln(shi)4, Solid): 2.0(2)·10^−3%
τobs (μs) ([2]; Ga4Ln(shi)4, Solid): 0.029(1) μs
ΔE (cm^−1), energy gap between ligand triplet state and Ln3+ emissive state [4]: 6 670 cm^−1
Substance: [HoGa4(shi)4(C6H5CO2)4(C5H5N)(CH3OH)].C5H6N.C5H5N.CH3OH [Ga4Ho(shi)4]
